Source: ChEMBL document CHEMBL3351515, “α-Hexylcinnamaldehyde inhibits the genotoxicity of environmental pollutants in the bacterial reverse mutation assay” (2014)

Legend:
[1] = test system: Salmonella typhimurium; experiment: Antimutagenic activity against 2-aminoanthracene-induced revertant colonies in Salmonella typhimurium TA100 assessed as number of revertant colonies measured post-treatment at 180 uM (reference value: 642.7 +/- 2.7) in presence of mammalian S9 fraction; type: functional, Salmonella enterica subsp. enterica serovar Typhimurium
[2] = test system: Salmonella typhimurium; experiment: Antimutagenic activity against sodium azide-induced revertant colonies in Salmonella typhimurium TA100 assessed as number of revertant colonies measured pretreatment at 180 uM (reference value: 1968 +/- 46.9) in absence of mammalian S9 fraction; type: functional, Salmonella enterica subsp. enterica serovar Typhimurium
[3] = test system: Escherichia coli; experiment: Antimutagenic activity against 2-aminoanthracene-induced revertant colonies in Escherichia coli WP2uvrA assessed as number of revertant colonies measured post-treatment at 18 uM (reference value: 308 +/- 4) in presence of mammalian S9 fraction; type: functional
[4] = test system: Salmonella typhimurium; experiment: Antimutagenic activity against 1-nitropyrene-induced revertant colonies in Salmonella typhimurium TA98NR assessed as inhibition of mutagenicity measured at 9 to 18 uM; type: functional, Salmonella enterica subsp. enterica serovar Typhimurium
[5] = test system: Escherichia coli; experiment: Antimutagenic activity against 2-aminoanthracene-induced revertant colonies in Escherichia coli WP2uvrA assessed as number of revertant colonies measured post-treatment at 9 uM (reference value: 308 +/- 4) in presence of mammalian S9 fraction; type: functional
[6] = test system: Escherichia coli; experiment: Antimutagenic activity against methyl methansulfonate-induced revertant colonies in Escherichia coli WP2uvrA assessed as number of revertant colonies measured pretreatment at 18 uM (reference value: 466.7 +/- 40.4) in absence of mammalian S9 fraction; type: functional
[7] = test system: Salmonella typhimurium; experiment: Antimutagenic activity against 1-nitropyrene-induced revertant colonies in Salmonella typhimurium TA98 1,8 DNP assessed as inhibition of mutagenicity measured at 900 uM; type: functional, Salmonella enterica subsp. enterica serovar Typhimurium; details: Salmonella enterica
[8] = test system: Escherichia coli; experiment: Antimutagenic activity against methyl methansulfonate-induced revertant colonies in Escherichia coli WP2uvrA assessed as number of revertant colonies measured cotreatment at 90 uM (reference value: 485.3 +/- 17.5) in absence of mammalian S9 fraction; type: functional
[9] = test system: Escherichia coli; experiment: Antimutagenic activity against methyl methansulfonate-induced revertant colonies in Escherichia coli WP2uvrA assessed as number of revertant colonies measured pretreatment at 900 uM (reference value: 466.7 +/- 40.4) in absence of mammalian S9 fraction; type: functional
[10] = test system: Escherichia coli; experiment: Antimutagenic activity against methyl methansulfonate-induced revertant colonies in Escherichia coli WP2uvrA assessed as number of revertant colonies measured post-treatment at 18 uM (reference value: 726.7 +/- 12.7) in absence of mammalian S9 fraction; type: functional
[11] = test system: Salmonella typhimurium; experiment: Antimutagenic activity against sodium azide-induced revertant colonies in Salmonella typhimurium TA100 assessed as number of revertant colonies measured cotreatment at 18 uM (reference value: 1588 +/- 55.6) in absence of mammalian S9 fraction; type: functional, Salmonella enterica subsp. enterica serovar Typhimurium
[12] = test system: Escherichia coli; experiment: Antimutagenic activity against methyl methansulfonate-induced revertant colonies in Escherichia coli WP2uvrA assessed as number of revertant colonies measured pretreatment at 9 uM (reference value: 466.7 +/- 40.4) in absence of mammalian S9 fraction; type: functional
[13] = test system: Salmonella typhimurium; experiment: Antimutagenic activity against 2-aminoanthracene-induced revertant colonies in Salmonella typhimurium TA100 assessed as number of revertant colonies measured cotreatment at 18 uM (reference value: 457.9 +/- 16.74) in presence of mammalian S9 fraction; type: functional, Salmonella enterica subsp. enterica serovar Typhimurium
[14] = test system: Escherichia coli; experiment: Antimutagenic activity against 2-aminoanthracene-induced revertant colonies in Escherichia coli WP2uvrA assessed as number of revertant colonies measured post-treatment at 90 uM (reference value: 308 +/- 4) in presence of mammalian S9 fraction; type: functional
[15] = test system: Salmonella typhimurium; experiment: Antimutagenic activity against 4-nitroquinoline N-oxide-induced revertant colonies in Salmonella typhimurium TA98 assessed as inhibition of mutagenicity measured at 90 to 180 uM; type: functional, Salmonella enterica subsp. enterica serovar Typhimurium
[16] = test system: Salmonella typhimurium; experiment: Antimutagenic activity against sodium azide-induced revertant colonies in Salmonella typhimurium TA100 assessed as number of revertant colonies measured pretreatment at 900 uM (reference value: 1968 +/- 46.9) in absence of mammalian S9 fraction; type: functional, Salmonella enterica subsp. enterica serovar Typhimurium
[17] = test system: Escherichia coli; experiment: Antimutagenic activity against 2-aminoanthracene-induced revertant colonies in Escherichia coli WP2uvrA assessed as number of revertant colonies measured pretreatment at 180 uM (reference value: 178.7 +/- 11.8) in presence of mammalian S9 fraction; type: functional
[18] = test system: Escherichia coli; experiment: Antimutagenic activity against 2-aminoanthracene-induced revertant colonies in Escherichia coli WP2uvrA assessed as number of revertant colonies measured pretreatment at 900 uM (reference value: 178.7 +/- 11.8) in presence of mammalian S9 fraction; type: functional
[19] = test system: Escherichia coli; experiment: Antimutagenic activity against methyl methansulfonate-induced revertant colonies in Escherichia coli WP2uvrA assessed as number of revertant colonies measured post-treatment at 90 uM (reference value: 726.7 +/- 12.7) in absence of mammalian S9 fraction; type: functional
[20] = test system: Salmonella typhimurium; experiment: Antimutagenic activity against 2-aminoanthracene-induced revertant colonies in Salmonella typhimurium TA100 assessed as number of revertant colonies measured pretreatment at 90 uM (reference value: 481.3 +/- 5.3) in presence of mammalian S9 fraction; type: functional, Salmonella enterica subsp. enterica serovar Typhimurium
[21] = test system: Escherichia coli; experiment: Antimutagenic activity against 2-aminoanthracene-induced revertant colonies in Escherichia coli WP2uvrA assessed as number of revertant colonies measured cotreatment at 9 uM (reference value: 366 +/- 10.3) in presence of mammalian S9 fraction; type: functional
[22] = test system: Salmonella typhimurium; experiment: Antimutagenic activity against 2-aminoanthracene-induced revertant colonies in Salmonella typhimurium TA100 assessed as number of revertant colonies measured pretreatment at 900 uM (reference value: 481.3 +/- 5.3) in presence of mammalian S9 fraction; type: functional, Salmonella enterica subsp. enterica serovar Typhimurium
[23] = test system: Escherichia coli; experiment: Antimutagenic activity against 2-aminoanthracene-induced revertant colonies in Escherichia coli WP2uvrA assessed as number of revertant colonies measured cotreatment at 180 uM (reference value: 366 +/- 10.3) in presence of mammalian S9 fraction; type: functional
[24] = test system: Salmonella typhimurium; experiment: Antimutagenic activity against 1,8-dinitropyrene-induced revertant colonies in Salmonella typhimurium TA98 assessed as inhibition of mutagenicity measured at 9 to 18 uM; type: functional, Salmonella enterica subsp. enterica serovar Typhimurium
[25] = test system: Escherichia coli; experiment: Antimutagenic activity against methyl methansulfonate-induced revertant colonies in Escherichia coli WP2uvrA assessed as number of revertant colonies measured post-treatment at 9 uM (reference value: 726.7 +/- 12.7) in absence of mammalian S9 fraction; type: functional
[26] = test system: Salmonella typhimurium; experiment: Antimutagenic activity against sodium azide-induced revertant colonies in Salmonella typhimurium TA100 assessed as number of revertant colonies measured post-treatment at 900 uM (reference value: 1909 +/- 29.7) in absence of mammalian S9 fraction; type: functional, Salmonella enterica subsp. enterica serovar Typhimurium
[27] = test system: Escherichia coli; experiment: Antimutagenic activity against 2-aminoanthracene-induced revertant colonies in Escherichia coli WP2uvrA assessed as number of revertant colonies measured cotreatment at 90 uM (reference value: 366 +/- 10.3) in presence of mammalian S9 fraction; type: functional
[28] = test system: Salmonella typhimurium; experiment: Antimutagenic activity against 4-nitroquinoline N-oxide-induced revertant colonies in Salmonella typhimurium TA98 assessed as inhibition of mutagenicity measured at 900 uM; type: functional, Salmonella enterica subsp. enterica serovar Typhimurium; details: Salmonella enterica
[29] = test system: Salmonella typhimurium; experiment: Antimutagenic activity against 2-nitrofluorene-induced revertant colonies in Salmonella typhimurium TA98 assessed as inhibition of mutagenicity measured at 9 to 18 uM; type: functional, Salmonella enterica subsp. enterica serovar Typhimurium
[30] = test system: Salmonella typhimurium; experiment: Antimutagenic activity against 1-nitropyrene-induced revertant colonies in Salmonella typhimurium TA98 1,8 DNP assessed as inhibition of mutagenicity measured at 9 to 18 uM; type: functional, Salmonella enterica subsp. enterica serovar Typhimurium

CCCCCC/C(C=O)=C\c1ccccc1
Activity [1]: 520 | Activity [2]: 1797 | Activity [3]: 292 | inhibition (INH) [4]: <25% | Activity [5]: 294.7 | Activity [6]: 451.3 | inhibition at 900 µM [7]: > 40% | Activity [8]: 466.7 | Activity [9]: 365.3 | Activity [10]: 524 | Activity [11]: 1501 | Activity [12]: 458.7 | Activity [13]: 446 | Activity [14]: 308.7 | inhibition (INH) [15]: 25% | Activity [16]: 1652 | Activity [17]: 147 | Activity [18]: 141.3 | Activity [19]: 517.3 | Activity [20]: 454.7 | Activity [21]: 336.8 | Activity [22]: 365.3 | Activity [23]: 318.7 | inhibition (INH) [24]: <25% | Activity [25]: 528 | Activity [26]: 1671 | Activity [27]: 334.3 | inhibition at 900 µM [28]: > 40% | inhibition (INH) [29]: <25% | inhibition (INH) [30]: <25%
